Test results from article PMC5071857, “A unique peptide deformylase platform to rationally design and challenge novel active compounds” (Scientific Reports, 2016).
Where two headings read alike, the source gives them in different places.

Assays:
[1] = target: T1, AtPDF1B (Arabidopsis thaliana, UniProt Q9FUZ2); test: PDF inhibition, formate dehydrogenase-coupled spectrophotometric assay (AtPDF1B); format: biochemical; settings: no pre-incubation, assay initiated by addition of enzyme; 100 nM AtPDF1B; 37 °C
T1 construct: made in house
T1 sequence (Q9FUZ2 83-273): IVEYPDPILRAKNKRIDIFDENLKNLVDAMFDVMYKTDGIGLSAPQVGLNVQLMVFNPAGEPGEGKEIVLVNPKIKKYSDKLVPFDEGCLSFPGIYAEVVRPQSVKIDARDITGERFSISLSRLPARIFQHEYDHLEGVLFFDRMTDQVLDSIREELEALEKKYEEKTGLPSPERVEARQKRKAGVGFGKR

[2] = tested on: E. coli AG100A (AcrAB- derivative); test: MIC by microdilution, E. coli AG100A; format: cell-based; settings: for MIC: Escherichia coli, 18 h, read-out: MIC AG100A; for MIC AG100A: with PMBN at 1/5 of its MIC, 18 h at 37 °C, average of three assays
Text: (§1) Two E. coli strains, one B. subtilis strain, one S. aureus strain, one E. faecalis strain, one S. agalactiae strain and three Enterobacter aerogenes strains previously described were used. Briefly, AG100 was an E. coli wild type strain and AG100A its acrAB^- derivative. EA289 was a Kan^s derivative of an E. aerogenes multi-drug resistant (MDR) clinical isolate overexpressing AcrAB-TolC efflux pumps, and EA294 and EA298 its acrAB^- and tolC^- derivatives respectively. Strains were routinely grown at 37 °C on Luria-Bertani (LB) agar or in Mueller-Hinton II broth (MH), supplemented with kanamycine (50 μg.mL^−1) for AG100A, EA294 and EA298.
(§2) MIC values of antibiotics were determined by the microdilution method in liquid MH media in microplates in the absence or presence of chemosensitizers/modulators (e.g. PMBN, PAβN), as previously described. Permeabilization, blocking of efflux pumps, and isolates with different levels of porin or efflux expression were used to assess the involvement of the membrane barrier in antibiotic activity.
(§3) Susceptibilities were determined in 96-wells microplates with an inoculum of 2 × 10^5 cfu in 200 μL of MH broth containing two-fold serial dilutions of each antibiotics or compounds. Molecules were tested alone or in combination with other molecules in equimolar ratio. MICs were realized in the absence and in the presence of a membrane permeabilizer, the polymyxine B nonapeptide (PMBN) used at 51.2 mg/L (1/5 or 1/10 of its direct MIC previously determined). Actinonin and ciprofloxacin were used as internal antibiotic reference. […] Each test was systematically performed in triplicate. The average of three independent assays is presented in μg/mL in the respective tables.

[3] = tested on: E. coli AG100; test: MIC by microdilution, E. coli AG100; format: cell-based; settings: 18 h at 37 °C, average of three assays; for MIC: Escherichia coli, AG100, without PMBN; for MIC AG100: with PMBN at 1/5 of its MIC
Text: as §1, §2, §3

[4] = target: T2, EcPDF (Escherichia coli, UniProt P0A6K3); test: PDF inhibition, formate dehydrogenase-coupled spectrophotometric assay (EcPDF); format: biochemical; settings: for Ki: 10 nM EcPDF; for EcPDF KI/KI*app: enhancement potency (slow tight-binding)
T2 construct: made in house
Description: (§4) The formate released by the deformylation reaction is used by FDH to convert NAD in NADH, the production of which being measured over time at 340 nm and controlled temperature (37 °C). The 200 μL reaction mixture contained 50 mM HEPES-NaOH pH7.5, 12 mM NAD^+, 4.5 U/mL FDH, 1 mM NiCl2 and PDF enzyme (either 40 nM SaPDF or 10 nM EcPDF or 100 nM AtPDF1B) previously diluted in presence of 0.1 mg/mL BSA. The reaction was started by addition of 1–6 mM Fo-Met-Ala-Ser. Kinetics parameters (kcat, Km) were derived from iterative non-linear least square fits using the Michaelis-menten equation based on the experimental data (Sigma-Plot, Kinetics module).
(§5) 1/KI*app is the slope of the v0/vi curve in function of compound concentration, where v0 and vi are the initial reaction rates in absence and presence of compound, respectively.
(§6) Determination of KI values was performed with a slightly modified protocol: reaction was started by addition of enzyme instead of Fo-Met-Ala-Ser, the latter being directly added to the mixture containing increasing concentrations of each compound. No pre-incubation of enzyme in presence of compound was done. 1/KI is the slope of the v0/vi curve in function of compound concentration, where v0 and vi are the initial reaction rates in absence and presence of compound respectively.

[5] = target: T3, SaPDF (Streptococcus agalactiae serotype III, UniProt Q8E378, S2A); test: biochemical; settings: SaPDF KI*app, PDFI pre-incubated with enzyme 10 min at 37 °C, started by 2 mM Fo-Met-Ala-Ser; 40 nM SaPDF
T3 construct: the recombinant protein contains all residues of the 204 amino acids mature protein; made in house; host or cells: E. coli Rosetta 2(DE3)pLysS

[6] = tested on: E. faecalis EFA 103.214; test: MIC, E. faecalis EFA 103.214; format: cell-based; settings: Enterococcus faecalis, EFA103.214, read-out: MIC E. faecalis EFA 103.214
Text: as §1, §2, §3

[7] = tested on: S. aureus SA113; test: MIC, S. aureus SA113; format: cell-based; settings: Staphylococcus aureus
Text: as §1, §2, §3

[8] = target: T1, AtPDF1B; test: PDF inhibition, formate dehydrogenase-coupled spectrophotometric assay (AtPDF1B); format: biochemical; settings: for Ki: PDFI pre-incubated with enzyme 10 min at 37 °C, started by 2 mM Fo-Met-Ala-Ser, read-out: AtPDF1B KI*app; for Ki / IC50: 100 nM AtPDF1B; for AtPDF1B KI/KI*app: enhancement potency (slow tight-binding); for IC50: 2 mM Fo-Met-Ala-Ser, 10 min pre-incubation at 37 °C
Description: as §4, with “Enzymatic activity was measured by a spectrophotometric assay where peptide deformylase activity is coupled to that of formate dehydrogenase. The formate” for “The formate”
as §5, §6

[9] = target: T3, SaPDF; test: biochemical; settings: for Ki: SaPDF KI, no pre-incubation, assay initiated by addition of enzyme, 40 nM SaPDF, 37 °C; for SaPDF KI/KI*app: enhancement potency (slow tight-binding)
Description: as §4, with “Enzymatic activity was measured by a spectrophotometric assay where peptide deformylase activity is coupled to that of formate dehydrogenase. The formate” for “The formate”
as §5, §6

[10] = tested on: E. aerogenes Ea289, MDR strain; test: MIC by microdilution, E. aerogenes Ea289; format: cell-based, Enterobacter aerogenes; settings: for MIC Ea289: +PMBN at 1/5 of its MIC, average of three assays; for MIC: Klebsiella aerogenes, 18 h, read-out: MIC Ea289
Text: as §1, §2, §3

[11] = tested on: E. aerogenes Ea298, Ea289 derivative tolC-; test: MIC by microdilution, E. aerogenes Ea298; format: cell-based, Enterobacter aerogenes; settings: for MIC Ea298: +PMBN at 1/5 of its MIC, average of three assays; for MIC: Klebsiella aerogenes, 18 h, read-out: MIC Ea298
Text: as §1, §2, §3

[12] = tested on: E. aerogenes Ea294, Ea289 derivative AcrAB-; test: MIC by microdilution, E. aerogenes Ea294; format: cell-based, Enterobacter aerogenes; settings: for MIC Ea294: +PMBN at 1/5 of its MIC, average of three assays; for MIC: Klebsiella aerogenes, 18 h, read-out: MIC Ea294
Text: as §1, §2, §3

[13] = EcPDF KI*app, PDFI pre-incubated with enzyme 10 min at 37 °C, started by 2 mM Fo-Met-Ala-Ser
[14] = EcPDF KI, no pre-incubation, assay initiated by addition of enzyme, 37 °C

T2 sequence (P0A6K3 whole entry): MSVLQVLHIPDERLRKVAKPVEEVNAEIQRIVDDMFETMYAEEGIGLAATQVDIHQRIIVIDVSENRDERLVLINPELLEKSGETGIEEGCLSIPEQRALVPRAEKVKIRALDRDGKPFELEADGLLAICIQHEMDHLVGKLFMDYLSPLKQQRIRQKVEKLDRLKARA
T3 sequence (Q8E378 whole entry S2A): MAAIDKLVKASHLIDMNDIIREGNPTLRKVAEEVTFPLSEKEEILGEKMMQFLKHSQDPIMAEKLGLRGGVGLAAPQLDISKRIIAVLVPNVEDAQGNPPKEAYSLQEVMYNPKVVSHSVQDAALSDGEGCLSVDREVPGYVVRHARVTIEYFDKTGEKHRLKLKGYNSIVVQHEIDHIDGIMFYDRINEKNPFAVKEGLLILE

Compound	Ki [1]	MIC [2]	MIC AG100A [2]	MIC [3]	MIC AG100 [3]	IC50 [4]	Ki [4, 13]	Ki [4, 14]	EcPDF KI/KI*app [4]	Ki [5]	MIC [6]	MIC [7]	Ki [8]	AtPDF1B KI/KI*app [8]	IC50 [9]	Ki [9]	SaPDF KI/KI*app [9]	IC50 [8]	MIC Ea289 [10]	MIC [10]	also measured
CCCCC(CC(=O)NO)c1nc(Cc2ccc(C(F)(F)F)cc2)no1 (stereo not shown) [AT008]	909 ± 78 nM	> 64 µg/mL	16 µg/mL	> 64 µg/mL	>64 µg/mL	14 ± 2 nM	18 ± 3 nM	80 ± 10 nM	4	81 ± 5 nM	> 64 µg/mL	> 64 µg/mL	666 ± 29 nM	1	25 ± 2 nM	75 ± 4 nM	1				
CCCCC(CC(=O)NO)c1nc(Cc2ccc(C(=O)OC)cc2)no1 (stereo not shown) [AT018]	1110 ± 100 nM	> 64 µg/mL	16 µg/mL	> 64 µg/mL	64 µg/mL	20 ± 2 nM	12 ± 1 nM	49 ± 3 nM	4	18 ± 1 nM			833 ± 10 nM	1	20 ± 1 nM	38 ± 6 nM	2	650 ± 20 nM			
CC(C)(C)OC(=O)N[C@@H](Cc1ccccc1)CN(O)C=O [RAS358]	2000 ± 150 nM					110 ± 10 nM	164 ± 40 nM	833 ± 30 nM	5	454 ± 29 nM			400 ± 37 nM	5	150 ± 12 nM	1430 ± 125 nM	3	251 ± 15 nM			
O=C(Cc1cn(Cc2ccccc2)c2ccc(Br)cc12)NO [SMP195]	909 ± 118 nM					17 ± 4 nM	20 ± 3 nM	29 ± 4 nM	1	250 ± 17 nM	16 µg/mL	4 µg/mL	833 ± 53 nM	1	110 ± 10 nM	285 ± 18 nM	1	400 ± 33 nM			
CCCCC(CC(=O)NO)c1nc(Cc2ccc(F)cc2)no1 (stereo not shown) [AT002]	58 ± 4 nM	> 64 µg/mL	32 µg/mL	> 64 µg/mL	64 µg/mL	4 ± 1 nM	5 ± 2 nM	31 ± 7 nM	6	4 ± 0.5 nM	> 64 µg/mL	> 64 µg/mL	53 ± 3 nM	1	3.5 ± 0.8 nM	13 ± 1 nM					
CCCC[C@H](CC(=O)NO)c1nc(Cc2ccc(OC(F)(F)F)cc2)no1 [AT013]		32 µg/mL	4 µg/mL	> 64 µg/mL	16 µg/mL	78 ± 11 nM	80 ± 10 nM	73 ± 12 nM	1	51 ± 3 nM	> 64 µg/mL	> 64 µg/mL	303 ± 12 nM		11 ± 1 nM	70 ± 5 nM	1	500 ± 15 nM	64 µg/mL	> 128 µg/mL	MIC Ea298 [11]: 16 µg/mL; MIC [11]: 128 µg/mL; MIC Ea294 [12]: 16 µg/mL; MIC [12]: > 128 µg/mL
O=C(Cc1c[nH]c2ccc(Br)cc12)NO [AB47]	455 ± 89 nM	64 µg/mL	32 µg/mL	> 64 µg/mL	64 µg/mL	37 ± 5 nM	39 ± 2 nM	47 ± 2 nM	1	73 ± 5 nM			400 ± 35 nM	1	63 ± 6 nM	62 ± 3 nM	1	360 ± 31 nM			
CCCC[C@H](CC(=O)NO)c1nc(Cc2coc3ccccc23)no1 [AT015]		32 µg/mL	2 µg/mL	> 64 µg/mL	16 µg/mL	17 ± 2 nM	10 ± 2 nM	35 ± 5 nM	3	122 ± 13 nM	> 64 µg/mL	> 64 µg/mL	1100 nM		20 ± 3 nM	166 ± 12 nM	1	300 ± 12 nM	128 µg/mL	> 128 µg/mL	MIC Ea298 [11]: 8 µg/mL; MIC [11]: 128 µg/mL; MIC Ea294 [12]: 16 µg/mL; MIC [12]: > 128 µg/mL
CCCCC[C@H](CC(=O)NO)C(=O)N[C@H](C(=O)N1CCC[C@H]1CO)C(C)C [Actinonin, actinonin, reference compound]	82 ± 10 nM	1 µg/mL	0.25 µg/mL	128 µg/mL	4 µg/mL					1 ± 0.1 nM			3.5 ± 0.3 nM		3 ± 0.9 nM	64 ± 5 nM		7.5 ± 1.8 nM	32 µg/mL	> 64 µg/mL	MIC Ea298 [11]: 1 µg/mL; MIC [11]: 32 µg/mL; MIC Ea294 [12]: 4 µg/mL; MIC [12]: 64 µg/mL
O=C(Cn1cc(Cc2ccccc2)c2cc(Br)ccc21)NO [SMP289]	1000 ± 78 nM	> 64 µg/mL	4 µg/mL	> 64 µg/mL	8 µg/mL	480 ± 30 nM	625 ± 75 nM	769 ± 30 nM	1	714 ± 72 nM	16 µg/mL	4 µg/mL	1430 nM	1	360 ± 21 nM	909 ± 64 nM	1	703 ± 47 nM			
